# According to US12158470B2, “Methods and compositions for live cell analysis of intracellular ATP” (Sartorius BioAnalytical Instruments, Inc., priority 2018, dated 2024):
# “Also recorded” adds a separate entry of the source.
# Legend:
# [1] = test system: triple-negative breast cancer (TNBC) cell lines; assay: Live cell ATP sensor imaging after compound treatment, TNBC cell lines; type: cell-based
# Description: (§1) Cancer cell lines stably expressing a genetically encoded, fluorescent ATP sensor or a control (non-ATP binding) sensor were generated. Cell lines were cultured in recommended media conditions except for studies evaluating the effects of the glutaminase-1 (GLS1) inhibitor CB-839, for which cells were adapted to RPMI supplemented with 10% FBS prior to experimentation. […] Cellular ATP levels were measured over the course of hours to days following compound treatment.
# (§2) A live cell imaging approach was then utilized to evaluate the effect of cancer therapeutics on ATP levels in tumor cell lines, focusing primarily on compounds that target metabolic vulnerabilities. […] Quantification of phase confluence confirmed that sustained decreases in ATP were associated with enhanced antiproliferative efficacy compared to conditions under which recovery of ATP levels were observed.
# [2] = test system: receptor-positive breast cancer lines; assay: Live cell ATP sensor imaging after compound treatment, receptor-positive breast cancer lines; type: cell-based
# Description: as §1, §2
compound,measurement,setting,value
O=C(Cc1cccc(OC(F)(F)F)c1)Nc1ccc(CCCCc2nnc(NC(=O)Cc3ccccn3)s2)nn1 [CB-839],effect on ATP levels in co-culture,[1]; TNBC cultured on a monolayer of CCD-1068Sk fibroblasts,diminished effects on ATP levels; also recorded: attenuated by co-culture with CCD-1068Sk fibroblasts
same,effect on ATP levels,"[1]; TNBC, mono-culture, three-day time course",rapid drop in ATP; also recorded: remained below that of vehicle-treated cells for the duration of the three-day time course; also recorded: prolonged ATP depletion
same,effect on ATP levels,"[2]; receptor-positive cell lines, mono-culture",no change to more modest decreases in ATP
same,time to recovery of ATP levels,[2]; receptor-positive cells,≤ 48 h
same,effect of co-culture on the ATP response,[2]; receptor-positive lines with CCD-1068Sk fibroblasts,unaffected by the presence of CCD-1068Sk fibroblasts
